Results published in patent publication US9365520B2, “Heterocyclic compound” (Takeda Pharmaceutical Company Limited, priority 2014, dated 2016).

Tests used:
[1] = tested on: IL-17A gene expression; experiment: Effect on IL-23-induced cytokine expression in mice; format: in vivo, Balb/c mice; details: Mus musculus, 24 h, 30 min before and 8 hr after IL-23, ear tissue, versus the negative control group, read-out: percent inhibition of IL-17A gene expression; for inhibition in vivo at 10 mg/kg: 10 mg/kg oral
Procedure: Effect on IL-23-Induced Cytokine Expression in Mice
A mouse IL-23 solution (500 ng/10 μL, prepared by Takeda Pharmaceutical Company Limited) or PBS (10 μL, negative control group) was administered intradermally in the ear of Balb/c mice (Charles River Japan, male, 7 weeks old). Twenty-four hr after administration, the ear was resected under isoflurane anesthesia. The test compound was suspended in 0.5% methylcellulose and administered orally 30 min before and 8 hr after IL-23 administration.
RNA extraction from the ear tissue and quantitative PCR were performed as follows. Specifically, ear tissue 5 mm in diameter was punched from an area of the resected ear centering on the IL-23 injection site, and the tissue was immersed in RNAlater (QIAGEN) for at least 18 hr. The RNAlater-treated ear tissue was homogenized in 350 μL of RLT buffer (RNeasy mini kit, QIAGEN) and treated (55° C., 10 min) with Proteinase K (QIAGEN). Total RNA was then extracted according to the RNeasy mini kit protocol. The RNA thus obtained was then reverse transcribed into cDNA using the High-Capacity RNA-to-cDNA kit (Applied Biosystems), and the amount of each gene expressions was measured by real-time PCR (Viia7™, Applied Biosystems). The PCR buffer used was TaqMan Fast Advanced Master Mix (Applied Biosystems), and TaqMan Gene Expression Assays (Applied Biosystems) Mm00439618_m1 (IL-17A) and 4352341E (β-actin) were used for each gene detection. The IL-17A gene expression level was normalized to the β-actin gene expression level, and the percent inhibition of IL-17A gene expression with the test compound was then calculated.
The results (percent inhibition of IL-17A gene expression with oral administration of the test compound) measured by the above-mentioned method are shown in Table 9.

[2] = tested on: IL-23-induced mouse psoriasis model; experiment: Effect in an IL-23-induced mouse psoriasis model; format: in vivo, Balb/c mice; details: versus the negative control group
Procedure: Effect in an IL-23-Induced Mouse Psoriasis Model
Mouse IL-23 (500 ng/15 μL, R&D) or PBS (15 μL, negative control group) was administered intradermally in the ear of Balb/c mice (Charles River Japan, male, 7 weeks old) 5 times every other days. Seven hr after IL-23 administration at 8 days after the initial administration (final administration), the mice were anesthetized with isoflurane, and ear thickness was measured with calipers. After the ear thickness was measured, the ear was resected, tissue 8 mm in diameter was punched from an area centering on the IL-23 injection site, and the tissue was weighed. The punched ear tissue was cut in half, and one half was immersion-fixed in 10% neutral buffer formalin solution for use in histopathological evaluation. The other half was immersed in RNAlater (QIAGEN) for at least 18 hr for use in an evaluation of the IL-17A mRNA expression level. The test compound was suspended in 0.5% methylcellulose and administered orally twice daily on consecutive days from 30 min before the initial IL-23 administration to 30 min before the final IL-23 administration.
The change in ear thickness in this model was evaluated by calculating the difference in measured thickness between before IL-23 administration and 7 hr after the final IL-23 administration. In addition, the formalin-fixed tissue was embedded and sectioned, then stained with hematoxylin-eosin. The degree of acanthosis was then evaluated qualitatively by microscopy (classified with a score of 0 to 4). RNA extraction from the ear tissue and quantitative PCR were performed as follows. As described above, ear tissue treated with RNAlater (QIAGEN) was homogenized in 350 μL of RLT buffer (RNeasy mini kit, QIAGEN) and treated (55° C., 10 min) with Proteinase K (QIAGEN). Total RNA was then extracted according to the RNeasy mini kit protocol. The RNA thus obtained was reverse transcribed into cDNA using the High-Capacity RNA-to-cDNA kit (Applied Biosystems), and the expression of each gene was measured by real-time PCR (Viia7™, Applied Biosystems). The PCR buffer used was TaqMan Fast Advanced Master Mix (Applied Biosystems), and TaqMan Gene Expression Assays (Applied Biosystems) Mm00439618_ml (IL-17A) and 4352341E (β-actin) were used to detect the genes. The IL-17A gene expression level was normalized to the β-actin gene expression level, and the percent inhibition of IL-17A gene expression with the test compound was then calculated.
The results (percent inhibition of ear thickness, acanthosis score and IL-17A gene expression with oral administration of the test compound) measured by the above-mentioned method are shown in Table 10.

[3] = tested on: T cell-transferred mouse colitis model; experiment: Effect in a T cell-transferred mouse colitis model; format: in vivo, mice; details: 3 mg/kg oral twice daily; 21 days after cell transfer; versus the negative control group
From the text: Effect in a T Cell-Transferred Mouse Colitis Model
Balb/c mice (Charles River Japan, female, 8 weeks old) were euthanized, and the spleens were resected, mashed in mesh, and passed through cell strainer to prepare a suspension of splenic cells. The mononuclear cell fraction in the splenic cells was isolated by density-gradient centrifugation, and subjected to hemolysis treatment with ammonium chloride buffer solution (Immuno-Biological Laboratories, Co., Ltd.). The naive T-cells were purified using CD4+CD62L+ T Cell Isolation Kit II (Miltenyi Biotec). The naive T-cells (2×10^5 cells/mouse) were intravenously transferred into SCIDmice (CLEA Japan, female, 8 weeks old). The compound was suspended in 0.5% methyl cellulose, and the suspension was orally administered twice daily on consecutive days from the same evening of the cell transfer. The mice were blinded 20 days after the cell transfer, and the symptom of the stool on floorcloth under blind was evaluated by scores of 1 to 4 (1: normal, 2: loose stool, 3: diarrhea (formed), 4: diarrhea (unformed)) 21 days after the cell transfer. […] The large intestine was washed with saline, and the weight was measured.
The results (percent inhibition of intestinal tract weight and diarrhea score with oral administration of the test compound) measured by the above-mentioned method are shown in Table 11.

[4] = tested on: mouse EAE model; experiment: Effect in a mouse EAE model; format: in vivo, C57BL/6J mice; details: 3 mg/kg oral; integration value of the clinical score for 28 days; versus the negative control group
Procedure: Effect in a Mouse EAE Model
. C57BL/6J mice (10 weeks old, female, Charles River Japan) were grouped based on the body weight, and the MOG emulsion was intradermally administered at two point of the joint of dorsal hindlimb so that the dose was 100 μL/site, 200 μL/mouse. In addition, Pertussis toxin (Merck) was intraperitoneally administered twice on the sensitization day and 2 days thereafter in the dose of 400 ng/200 μL/mouse. The body weight was measured twice a week before onset and everyday (excluding holiday) after onset from the sensitization day. The clinical score was evaluated by the following standard scores of 0 to 5 (0: normal, 0.5: partial paralysis of tail, 1: complete paralysis of tail, 2: partial paralysis of hindlimb, 3: paralysis of lower body, 4: partial paralysis of forelimb, 5: paralysis of both forelimbs or death) by observation everyday (excluding holiday) after the beginning of onset.
The percent inhibition of the clinical score of the test compound administration group relative to that of the control group was calculated using integration value of the clinical score for 28 days.
The results (percent inhibition of clinical score with oral administration of the test compound) measured by the above-mentioned method are shown in Table 12.

Structure (SMILES) | inhibition in vivo at 3 mg/kg ([1]; 3 mg/kg oral) [%] | percent inhibition of IL-17A expression ([2]; 3 mg/kg oral twice daily) [%] | percent inhibition of acanthosis score ([2]; 3 mg/kg oral twice daily) [%] | percent inhibition of ear thickness ([2]; 3 mg/kg oral twice daily) [%] | percent inhibition of diarrhea score [3] [%] | percent inhibition of intestinal tract weight [3] [%] | percent inhibition of clinical score [4] [%] | inhibition in vivo at 10 mg/kg [1] [%] | percent inhibition of IL-17A expression ([2]; 1 mg/kg oral twice daily) [%] | percent inhibition of acanthosis score ([2]; 1 mg/kg oral twice daily) [%] | percent inhibition of ear thickness ([2]; 1 mg/kg oral twice daily) [%]
COc1ccc2c(n1)CCN(C(=O)[C@H]1C[C@@H](CC(=O)O)C1)[C@H]2C(=O)Nc1cc(F)c2c(c1)CCC2(C)C [Example 15, (cis-3-(((5R)-5-((7-fluoro-1,1-dimethyl-2,3-dihydro-1H-inden-5-yl)carbamoyl)-2-methoxy-7,8-dihydro-1,6-naphthyridin-6(5H)-yl)carbonyl)cyclobutyl)acetic acid] | 99 | 93 | 53 | 61 | 81 | 58 | 64 |  |  |  | 
COc1ccc2c(n1)CCN(C(=O)[C@H]1C[C@@H](C(=O)O)C1)[C@H]2C(=O)Nc1cc(F)c2c(c1)CCC2(C)C [Example 10] |  |  |  |  |  |  |  | 87 | 91 | 47 | 52
COc1ccc2c(c1)CCN(C(=O)[C@H]1C[C@@H](CC(=O)O)C1)[C@H]2C(=O)Nc1cc(F)c([Si](C)(C)C)c(F)c1 [Example 25, (cis-3-(((1R)-1-((3,5-difluoro-4-(trimethylsilyl)phenyl)carbamoyl)-6-methoxy-3,4-dihydroisoquinolin-2(1H)-yl)carbonyl)cyclobutyl)acetic acid] |  |  |  |  |  |  |  | 92 |  |  | 
